{"source": "patent US20260374766A1", "about": "“METHODS FOR TREATING CANCER” (Antares Therapeutics, Inc., priority 2022, published 2026)", "key": {"[1]": {"biological_target": "T1, p53 Y220C mutant protein (amino acid residues 94-293) (Homo sapiens, UniProt P04637, Y220C)", "T1 construct": "p53 Y220C mutant protein (amino acid residues 94-293)", "experiment": "Surface Plasmon Resonance (SPR) assay, Kd_kinetic", "type": "binding", "settings": "SPR, kinetic KD, p53 Y220C; read-out: SPR P53 Y220C KD kinetic", "procedure,_shortened": "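Surface plasmon resonance is run at 16 or 20 °C in 50 mM Tris pH 7.5 containing 100 mM NaCl, 1 mM DTT, 0.01% Brij35, 0.05% Tween-20 and 1% DMSO. Association and dissociation data are fitted to a 1:1 model.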"}, "H1299 p53 R273H": {"tested_on": "H1299 p53 R273H", "experiment": "Cell Proliferation Assay (CellTiter-Glo, CTG), H1299 p53 R273H (NClH1299-inducible p53 R273H)", "type": "cell-based", "settings": "Homo sapiens, NCI-H1299, 120 h, CellTiter-Glo, H1299 p53 R273H, 5 days", "procedure,_shortened": "(§1)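 Cells seeded at 250-500 per well and exposed to compound for 5 days. Viability read by CellTiter-Glo luminescence after 10 min at room temperature; IC50 calculated. H1299 lines carry Tet-One inducible p53 mutant constructs introduced by lentiviral transduction.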"}, "[2]": {"biological_target": "T1, p53 Y220C mutant protein (amino acid residues 94-293)", "experiment": "Thermal Shift Assay (TSA), dTM", "type": "binding", "settings": "thermal shift; for ΔTm at 100 µM: 100 uM compound, read-out: TSA P53 Y220C dTM (100 uM)", "procedure,_shortened": "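First, the mutant DNA-binding domain (5 μM) was preincubated 3 hours at 20 °C with compound at 10 μM or 100 μM. Next, the sample was heated from 30 °C to 50 °C at 0.03 °C/second in the presence of Sypro Orange. Finally, TM was obtained from a two-state Boltzmann fit.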"}, "p53 Y220C": {"biological_target": "p53 Y220C (Homo sapiens, UniProt P04637, Y220C)", "experiment": "Luciferase Reporter Assay (Luc), p53 response element, NClH1299 cells with inducible p53 Y220C", "type": "cell-based", "settings": "luciferase reporter, NClH1299 inducible p53 Y220C, 6 hour; for Emax: 10 uM tool compound as positive control; for AC50: read-out: Luc P53 Y220C AC50", "procedure,_shortened": "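Luciferase activity is measured directly after One-Glo addition and a 5-minute room-temperature shake. Before that, cells plated at 5,000 per well receive doxycycline at 0.5 ug/mL for 24 hours, followed by compound for 6 hours.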"}, "NUGC3 p53 Y220C": {"tested_on": "NUGC3 p53 Y220C", "experiment": "Cell Proliferation Assay (CellTiter-Glo, CTG), NUGC3 p53 Y220C", "type": "cell-based", "settings": "Homo sapiens, NUGC-3, 120 h, CellTiter-Glo, NUGC3 p53 Y220C, 5 days", "procedure,_shortened": "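Tet-One inducible p53 Y220C or R273H constructs were stably introduced into NCI-H1299 by lentiviral transduction; NUGC3 was used as is. Cells (250-500 per well) were exposed to compound for 5 days, then CellTiter-Glo was added for 10 min at room temperature and IC50 was calculated from luminescence.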"}, "H1299 p53 Y220C": {"tested_on": "H1299 p53 Y220C", "experiment": "Cell Proliferation Assay (CellTiter-Glo, CTG), H1299 p53 Y220C (NClH1299-inducible p53 Y220C)", "type": "cell-based", "settings": "Homo sapiens, NCI-H1299, 120 h, CellTiter-Glo, H1299 p53 Y220C, 5 days", "procedure,_shortened": "as §1"}}, "data": [{"smiles": "COc1cc(S(=O)(=O)C(C)C)ccc1NCC#Cc1nc2c(N[C@@H]3CCN(C)C[C@@H]3F)cccn2c1CC(F)(F)F", "note": "[Example 77, (3S,4R)-3-fluoro-N-[2-(3-{[2-methoxy-4-(propane-2-sulfonyl)phenyl]amino}prop-1-yn-1-yl)-3-(2,2,2-trifluoroethyl)imidazo[1,2-a]pyridin-8-yl]-1-methylpiperidin-4-amine]", "values": [{"measurement": "Kd", "setting": "[1]", "value": "< 10", "unit": "nM"}, {"measurement": "IC50", "setting": "H1299 p53 R273H", "value": "5000 to 8000", "unit": "nM"}, {"measurement": "ΔTm at 100 µM", "setting": "[2]", "value": "≥ 10", "unit": "°C"}, {"measurement": "Emax", "setting": "p53 Y220C", "value": "70 to 80", "unit": "%"}, {"measurement": "AC50", "setting": "p53 Y220C", "value": "< 750", "unit": "nM"}, {"measurement": "IC50", "setting": "NUGC3 p53 Y220C", "value": "< 750", "unit": "nM"}, {"measurement": "IC50", "setting": "H1299 p53 Y220C", "value": "< 750", "unit": "nM"}]}, {"smiles": "COc1cc(S(=O)(=O)C(C)C)ccc1NCC#Cc1nc2c(N[C@@H]3CCN(C)C[C@@H]3F)cccn2c1SC(F)(F)F", "note": "[Example 78, (3S,4R)-3-fluoro-N-[2-(3-{[2-methoxy-4-(propane-2-sulfonyl)phenyl]amino}prop-1-yn-1-yl)-3-[(trifluoromethyl)sulfanyl]imidazo[1,2-a]pyridin-8-yl]-1-methylpiperidin-4-amine]", "values": [{"measurement": "Kd", "setting": "[1]", "value": "< 10", "unit": "nM"}, {"measurement": "IC50", "setting": "H1299 p53 R273H", "value": "≥ 10000", "unit": "nM"}, {"measurement": "ΔTm at 100 µM", "setting": "[2]", "value": "≥ 10", "unit": "°C"}, {"measurement": "Emax", "setting": "p53 Y220C", "value": "80 to 90", "unit": "%"}, {"measurement": "AC50", "setting": "p53 Y220C", "value": "< 750", "unit": "nM"}, {"measurement": "IC50", "setting": "NUGC3 p53 Y220C", "value": "< 750", "unit": "nM"}, {"measurement": "IC50", "setting": "H1299 p53 Y220C", "value": "< 750", "unit": "nM"}]}, {"smiles": "CCS(=O)(=O)c1ccc(NCC#Cc2nc3c(N[C@@H]4CCN(C)C[C@@H]4F)cccn3c2SC(F)(F)F)c(OC)c1", "note": "[Example 79, (3S,4R)—N-[2-(3-{[4-(ethanesulfonyl)-2-methoxyphenyl]amino}prop-1-yn-1-yl)-3-[(trifluoromethyl)sulfanyl]imidazo [1,2-a]pyridin-8-yl]-3-fluoro-1-methylpiperidin-4-amine]", "values": [{"measurement": "Kd", "setting": "[1]", "value": "< 10", "unit": "nM"}, {"measurement": "IC50", "setting": "H1299 p53 R273H", "value": "8000 to 10000", "unit": "nM"}, {"measurement": "ΔTm at 100 µM", "setting": "[2]", "value": "≥ 10", "unit": "°C"}, {"measurement": "Emax", "setting": "p53 Y220C", "value": "80 to 90", "unit": "%"}, {"measurement": "AC50", "setting": "p53 Y220C", "value": "< 750", "unit": "nM"}, {"measurement": "IC50", "setting": "NUGC3 p53 Y220C", "value": "< 750", "unit": "nM"}, {"measurement": "IC50", "setting": "H1299 p53 Y220C", "value": "< 750", "unit": "nM"}]}, {"smiles": "CCS(=O)(=O)c1ccc(NCC#Cc2nc3c(N[C@@H]4CCNC[C@@H]4F)cccn3c2SC(F)(F)F)c(OC)c1", "note": "[Example 80, (3S,4R)—N-[2-(3-{[4-(ethanesulfonyl)-2-methoxyphenyl]amino}prop-1-yn-1-yl)-3-[(trifluoromethyl)sulfanyl]imidazo[1,2-a]pyridin-8-yl]-3-fluoropiperidin-4-amine]", "values": [{"measurement": "Kd", "setting": "[1]", "value": "< 10", "unit": "nM"}, {"measurement": "IC50", "setting": "H1299 p53 R273H", "value": "5000 to 8000", "unit": "nM"}, {"measurement": "ΔTm at 100 µM", "setting": "[2]", "value": "≥ 10", "unit": "°C"}, {"measurement": "Emax", "setting": "p53 Y220C", "value": "80 to 90", "unit": "%"}, {"measurement": "AC50", "setting": "p53 Y220C", "value": "< 750", "unit": "nM"}, {"measurement": "IC50", "setting": "NUGC3 p53 Y220C", "value": "< 750", "unit": "nM"}, {"measurement": "IC50", "setting": "H1299 p53 Y220C", "value": "< 750", "unit": "nM"}]}, {"smiles": "COc1cc(S(=O)(=O)C2CC2)ccc1NCC#Cc1nc2c(N[C@@H]3CCN(C)C[C@@H]3F)cccn2c1SC(F)(F)F", "note": "[Example 81, (3S,4R)—N-[2-(3-{[4-(cyclopropanesulfonyl)-2-methoxyphenyl]amino}prop-1-yn-1-yl)-3-[(trifluoromethyl)sulfanyl]imidazo[1,2-a]pyridin-8-yl]-3-fluoro-1-methylpiperidin-4-amine]", "values": [{"measurement": "Kd", "setting": "[1]", "value": "< 10", "unit": "nM"}, {"measurement": "IC50", "setting": "H1299 p53 R273H", "value": "5000 to 8000", "unit": "nM"}, {"measurement": "ΔTm at 100 µM", "setting": "[2]", "value": "≥ 10", "unit": "°C"}, {"measurement": "Emax", "setting": "p53 Y220C", "value": "80 to 90", "unit": "%"}, {"measurement": "AC50", "setting": "p53 Y220C", "value": "< 750", "unit": "nM"}, {"measurement": "IC50", "setting": "NUGC3 p53 Y220C", "value": "< 750", "unit": "nM"}, {"measurement": "IC50", "setting": "H1299 p53 Y220C", "value": "< 750", "unit": "nM"}]}, {"smiles": "COc1cc(S(C)(=O)=O)ccc1NCC#Cc1nc2c(N[C@@H]3CCN(C)C[C@@H]3F)cccn2c1SC(F)(F)F", "note": "[Example 82, (3S,4R)-3-fluoro-N-(2-{3-[(4-methanesulfonyl-2-methoxyphenyl)amino]prop-1-yn-1-yl}-3-[(trifluoromethyl)sulfanyl]imidazo[1,2-a]pyridin-8-yl)-1-methylpiperidin-4-amine]", "values": [{"measurement": "Kd", "setting": "[1]", "value": "< 10", "unit": "nM"}, {"measurement": "IC50", "setting": "H1299 p53 R273H", "value": "8000 to 10000", "unit": "nM"}, {"measurement": "ΔTm at 100 µM", "setting": "[2]", "value": "≥ 10", "unit": "°C"}, {"measurement": "Emax", "setting": "p53 Y220C", "value": "80 to 90", "unit": "%"}, {"measurement": "AC50", "setting": "p53 Y220C", "value": "< 750", "unit": "nM"}, {"measurement": "IC50", "setting": "NUGC3 p53 Y220C", "value": "< 750", "unit": "nM"}, {"measurement": "IC50", "setting": "H1299 p53 Y220C", "value": "< 750", "unit": "nM"}]}, {"smiles": "COc1cc(S(C)(=O)=O)ccc1NCC#Cc1nc2c(N[C@@H]3CCNC[C@@H]3F)cccn2c1SC(F)(F)F", "note": "[Example 83]", "values": [{"measurement": "Kd", "setting": "[1]", "value": "< 10", "unit": "nM"}, {"measurement": "IC50", "setting": "H1299 p53 R273H", "value": "5000 to 8000", "unit": "nM"}, {"measurement": "ΔTm at 10 µM", "setting": "[2]; 10 uM compound, read-out: TSA P53 Y220C dTM (10 uM)", "value": "≥ 10", "unit": "°C"}, {"measurement": "ΔTm at 100 µM", "setting": "[2]", "value": "≥ 10", "unit": "°C"}, {"measurement": "Emax", "setting": "p53 Y220C", "value": "70 to 80", "unit": "%"}, {"measurement": "AC50", "setting": "p53 Y220C", "value": "< 750", "unit": "nM"}, {"measurement": "IC50", "setting": "NUGC3 p53 Y220C", "value": "< 750", "unit": "nM"}, {"measurement": "IC50", "setting": "H1299 p53 Y220C", "value": "< 750", "unit": "nM"}]}]}
